Measured values: ChEMBL document CHEMBL1201862, “PubChem BioAssay data set” (2004)
Activity calls are given as the source filed them.

Legend:
Coagulation factor XII = target: T1, Coagulation factor XII (Homo sapiens, UniProt P00748); test: FXIIa inhibitor potency, concentration-response, biochemical (AID 716); format: functional
T1 sequence (P00748 whole entry): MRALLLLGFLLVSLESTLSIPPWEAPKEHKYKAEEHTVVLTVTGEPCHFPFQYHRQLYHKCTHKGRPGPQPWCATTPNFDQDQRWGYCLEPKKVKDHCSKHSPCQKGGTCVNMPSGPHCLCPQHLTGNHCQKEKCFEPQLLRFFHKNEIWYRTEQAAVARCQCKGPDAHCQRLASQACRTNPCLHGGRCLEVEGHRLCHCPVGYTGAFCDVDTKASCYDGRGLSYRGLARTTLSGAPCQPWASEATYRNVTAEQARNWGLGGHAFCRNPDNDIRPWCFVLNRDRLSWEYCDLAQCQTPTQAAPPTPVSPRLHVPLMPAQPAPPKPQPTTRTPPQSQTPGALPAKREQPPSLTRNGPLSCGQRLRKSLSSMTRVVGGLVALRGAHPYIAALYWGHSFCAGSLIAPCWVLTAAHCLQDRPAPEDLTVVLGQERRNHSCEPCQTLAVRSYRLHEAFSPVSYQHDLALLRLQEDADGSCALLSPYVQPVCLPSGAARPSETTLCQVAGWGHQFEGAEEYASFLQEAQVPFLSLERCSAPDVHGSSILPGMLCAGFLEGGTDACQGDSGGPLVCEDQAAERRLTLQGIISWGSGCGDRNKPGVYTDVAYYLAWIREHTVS

Trypanosoma cruzi = test: growth inhibition of intracellular Trypanosoma cruzi, dose response, cell-based, plate reader, dry powder, set 3 (AID 493197); format: functional
[1] = cytotoxicity in NIH/3T3 mouse fibroblasts, dose response, cytotoxicity control, cell-based, mouse embryonic fibroblasts, dry powder, set 2 (AID 493247); format: functional; conditions: Fibroblast
HEK293 [2] = test: NOD1 signaling inhibitors, primary screen, cell-based, luminescence, uHTS (AID 1578); format: functional; conditions: Homo sapiens
[3] = HepG2 cell cytotoxicity, dose response, cytotoxicity control for Shn3 inhibitor project, CellTiter-Glo, cherry-picked (AID 624134); format: functional, cell-based
HEK293 [4] = test: NOD2 signaling inhibitors in MDP-stimulated cells, cell-based, uHTS, luminescence (AID 2001); format: functional; conditions: Homo sapiens
[5] = target: Nucleotide-binding oligomerization domain-containing protein 2 (Homo sapiens, UniProt Q9HC29); test: NOD2 signaling inhibitors, cell-based, luminescence, uHTS, HEK293 (AID 1566); format: functional
Nucleotide-binding oligomerization domain-containing protein 2, sequence (Q9HC29 whole entry, the tested form may be a part): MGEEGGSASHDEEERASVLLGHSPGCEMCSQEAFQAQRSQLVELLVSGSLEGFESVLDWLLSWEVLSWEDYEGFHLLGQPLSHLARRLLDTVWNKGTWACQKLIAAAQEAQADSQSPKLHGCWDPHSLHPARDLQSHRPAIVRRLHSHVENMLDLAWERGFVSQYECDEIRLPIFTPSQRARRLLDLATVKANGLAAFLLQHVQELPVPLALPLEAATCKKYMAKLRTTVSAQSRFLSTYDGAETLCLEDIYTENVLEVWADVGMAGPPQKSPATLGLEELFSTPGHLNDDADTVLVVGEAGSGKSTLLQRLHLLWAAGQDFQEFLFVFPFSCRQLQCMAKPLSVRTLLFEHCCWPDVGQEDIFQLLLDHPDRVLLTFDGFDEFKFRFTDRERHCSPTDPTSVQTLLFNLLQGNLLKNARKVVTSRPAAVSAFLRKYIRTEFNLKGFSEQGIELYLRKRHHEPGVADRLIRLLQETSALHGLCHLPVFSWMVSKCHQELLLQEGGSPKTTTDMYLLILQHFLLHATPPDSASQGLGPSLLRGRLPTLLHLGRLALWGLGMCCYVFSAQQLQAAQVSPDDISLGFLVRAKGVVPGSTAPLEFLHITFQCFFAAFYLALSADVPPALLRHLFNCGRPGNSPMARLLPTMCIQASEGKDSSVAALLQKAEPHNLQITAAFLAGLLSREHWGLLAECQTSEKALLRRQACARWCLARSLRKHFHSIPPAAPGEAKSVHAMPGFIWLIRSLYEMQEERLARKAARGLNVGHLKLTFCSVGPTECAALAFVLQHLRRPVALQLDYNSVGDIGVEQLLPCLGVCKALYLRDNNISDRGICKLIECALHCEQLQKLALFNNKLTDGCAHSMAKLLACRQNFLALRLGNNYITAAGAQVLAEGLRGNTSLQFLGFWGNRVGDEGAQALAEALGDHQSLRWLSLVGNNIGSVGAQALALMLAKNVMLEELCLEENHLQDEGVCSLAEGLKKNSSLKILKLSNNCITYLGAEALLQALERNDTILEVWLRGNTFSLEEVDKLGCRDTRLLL

[6] = target: G-protein coupled receptor 55 (Homo sapiens, UniProt Q9Y2T6); test: GPR55 agonists via beta-arrestin recruitment, primary screen, imaging, U2OS cells, beta-arrestin-GFP redistribution (AID 1961); format: functional
G-protein coupled receptor 55, sequence (Q9Y2T6 whole entry): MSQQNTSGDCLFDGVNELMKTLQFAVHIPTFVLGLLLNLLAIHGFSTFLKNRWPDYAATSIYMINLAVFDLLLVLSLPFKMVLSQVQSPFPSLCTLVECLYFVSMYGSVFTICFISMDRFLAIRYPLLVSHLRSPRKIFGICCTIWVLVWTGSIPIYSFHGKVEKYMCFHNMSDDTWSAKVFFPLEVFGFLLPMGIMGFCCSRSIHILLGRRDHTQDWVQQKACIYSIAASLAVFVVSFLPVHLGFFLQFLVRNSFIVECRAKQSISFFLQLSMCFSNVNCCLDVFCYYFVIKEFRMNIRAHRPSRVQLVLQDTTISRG

[7] = Shn3 3'UTR reporter inhibitors, dose response, cell-based, Clone20 osteoblasts, firefly luciferase, cherry-picked (AID 624132); format: functional;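 also: firefly luciferase luminescence from reporter carrying the Shn3 3'UTR in osteoblasts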
HEK293 [8] = test: cells; format: functional, cell-based; conditions: Homo sapiens
Paired box protein Pax-8 = Paired box protein Pax-8 (Homo sapiens, UniProt Q06710); test: inhibitors of PAX8-driven TPO luciferase reporter, dose response, RMG-I cells, cherry-pick (AID 687027); format: functional, cell-based;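 also: luciferase reporter driven by Pax8 target thyroperoxidase promoter measured by SteadyGlo luminescence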
Paired box protein Pax-8, sequence (Q06710 whole entry): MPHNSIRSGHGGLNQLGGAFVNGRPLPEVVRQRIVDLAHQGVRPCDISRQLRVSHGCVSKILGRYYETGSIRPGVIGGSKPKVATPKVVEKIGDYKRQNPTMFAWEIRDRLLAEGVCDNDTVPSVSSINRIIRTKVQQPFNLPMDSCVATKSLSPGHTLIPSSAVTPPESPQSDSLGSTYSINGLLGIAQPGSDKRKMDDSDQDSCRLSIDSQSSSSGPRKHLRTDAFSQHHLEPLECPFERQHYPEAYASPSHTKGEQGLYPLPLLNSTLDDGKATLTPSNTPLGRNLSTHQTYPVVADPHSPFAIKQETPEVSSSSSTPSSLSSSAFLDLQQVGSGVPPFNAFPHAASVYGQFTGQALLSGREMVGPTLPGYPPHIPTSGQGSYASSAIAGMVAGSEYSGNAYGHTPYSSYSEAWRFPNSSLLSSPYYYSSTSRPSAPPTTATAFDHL

[9] = non-specific cell cytotoxicity, dose response, cytotoxicity control for PAX8 inhibitor project, plate reader, dry powder samples (AID 743021); format: functional, cell-based
HEK293 [10] = test: cells; format: functional, cell-based; conditions: Homo sapiens; remark: listed apart in the source
[11] = control 3'UTR Renilla luciferase suppression, dose response, counter-screen for Shn3 inhibitor project, cell-based, Clone20-Shn3RL, cherry-picked (AID 624133); format: functional
HEK293 [12] = test: cells; format: functional, cell-based; conditions: Homo sapiens; remark: listed apart in the source

With `COc1ccc2oc(C)c(C(=O)Cn3ccnc3)c2c1` the IC50 (Coagulation factor XII) was > 50 µM (inactive).
With `O=C(CCC(=O)Nc1ccccc1)N/N=C/c1ccc([N+](=O)[O-])o1` the AC50 (Trypanosoma cruzi) was 125 nM (active) and the AC50 [1] was 5.35 µM (active).
In the case of `CCOc1ccc(C(=O)C(CCC(CN(C)C)C(=O)c2ccc(OCC)cc2)CN(C)C)cc1` (stereo not given), the EC50 (HEK293 [2]) is reported as 15.9 µM (active), the AC50 [3] is reported as 6.77 µM (active) and the IC50 (HEK293 [4]) is reported as 2.48 µM (active). The EC50 [5] was > 20 µM (inactive), the EC50 [6] was > 32 µM (inactive) and the AC50 [7] was 1.61 µM (active). The IC50 (HEK293 [8]) was > 20 µM (inactive), the AC50 (Paired box protein Pax-8) was 4.27 µM (active) and the AC50 [9] was 36.7 µM (active). For the same compound, the IC50 (HEK293 [10]) was 1.53 µM (active), the AC50 [11] was 7.72 µM (active) and the IC50 (HEK293 [12]) was 6.72 µM (active).
